# Laboratory results: patent US20230263822A1, “MODULATION OF FACTOR 11 EXPRESSION” (Ionis Pharmaceuticals, Inc., priority 2008, published 2023)
# Several values for one entry are separate records, joined by “and”; a condition that tells them apart may be missing. Identical values can stand only once. Strand notation (5' to 3'): a small letter for the sugar, then the base; units joined by * are phosphorothioate-linked, units joined directly phosphodiester-linked; [ ] holds rarer units or linkages, { } end groups; capitals alone tell only the bases. e = 2'-O-(2-methoxyethyl) (MOE); [5mC] = 5-methylcytosine; d = 2'-deoxy (DNA)
# Columns and labels:
# [1] = Viscosity of ISIS antisense oligonucleotides, micro-viscometer at 25 °C (Example 47); assay type: physicochemical; details: for Concentration: concentration of the viscosity sample, UV reading at 260 nM at 85° C.; for Viscosity: in water, micro-viscometer at 25° C., at the concentration of the same line
# Outline: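 Oligonucleotide (32-35 mg) was dissolved in 120 μL water by heating at 50° C, and viscosity was measured by micro-viscometer at 25° C. Concentration was checked by UV at 260 nm at 85° C on a dilution in water. Screening cut-off: >40 cP at 165-185 mg/mL.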
# human Factor 11 mRNA [2] = test: Dose-dependent inhibition of human Factor 11 in HepB3 cells, electroporation (Example 7); assay type: cell-based; details: for percent inhibition of human Factor 11 mRNA relative to untreated control cells: ~16 hours
# Procedure: The gapmers were also transfected via electroporation and their dose dependent inhibition of human Factor 11 mRNA was measured. Cells were plated at a density of 20,000 cells per well and transfected via electroporation with 41.15 nM, 123.457 nM, 370.37 nM, 1111.11 nM, 3333.33 nM, and 10,000 nM concentrations of antisense oligonucleotide, as specified in Table 15. After a treatment period of approximately 16 hours, RNA was isolated from the cells and human Factor 11 mRNA levels were measured by quantitative real-time PCR. Human Factor 11 primer probe set RTS 2966 was used to measure mRNA levels. Factor 11 mRNA levels were adjusted according to total RNA content, as measured by RIBOGREEN. Results are presented as percent inhibition of human Factor 11, relative to untreated control cells.
# human Factor 11 mRNA [3] = test: Dose-dependent inhibition of human Factor 11 in cyano primary hepatocytes, electroporation (Example 6); assay type: cell-based; details: ~16 hours
# Procedure: Cells were plated at a density of 35,000 cells per well and transfected via electroporation with 0.74 nM, 2.2 nM, 6.7 nM, 20 nM, 60 nM, and 180 nM concentrations of antisense oligonucleotide, as specified in Table 13. After a treatment period of approximately 16 hours, RNA was isolated from the cells and human Factor 11 mRNA levels were measured by quantitative real-time PCR. Human Factor 11 primer probe set RTS 2966 was used to measure mRNA levels. Factor 11 mRNA levels were adjusted according to total RNA content, as measured by RIBOGREEN. Results are presented as percent inhibition of human Factor 11, relative to untreated control cells.
Substance,Concentration [1],Viscosity [1],IC50 (human Factor 11 mRNA [2]) [µM],percent inhibition of human Factor 11 mRNA relative to untreated control cells (human Factor 11 mRNA [2]; 41.15 nM) [%],percent inhibition of human Factor 11 mRNA relative to untreated control cells (human Factor 11 mRNA [2]; 123.457 nM) [%],percent inhibition of human Factor 11 mRNA relative to untreated control cells (human Factor 11 mRNA [2]; 370.37 nM) [%],percent inhibition of human Factor 11 mRNA relative to untreated control cells (human Factor 11 mRNA [2]; 1111.11 nM) [%],percent inhibition of human Factor 11 mRNA relative to untreated control cells (human Factor 11 mRNA [2]; 3333.33 nM) [%],percent inhibition of human Factor 11 mRNA relative to untreated control cells (human Factor 11 mRNA [2]; 10000 nM) [%],percent inhibition of human Factor 11 mRNA relative to untreated control cells (human Factor 11 mRNA [3]; 0.74 nM) [%],percent inhibition of human Factor 11 mRNA relative to untreated control cells (human Factor 11 mRNA [3]; 2.2 nM) [%],percent inhibition of human Factor 11 mRNA relative to untreated control cells (human Factor 11 mRNA [3]; 6.7 nM) [%],percent inhibition of human Factor 11 mRNA relative to untreated control cells (human Factor 11 mRNA [3]; 20 nM) [%],percent inhibition of human Factor 11 mRNA relative to untreated control cells (human Factor 11 mRNA [3]; 60 nM) [%],percent inhibition of human Factor 11 mRNA relative to untreated control cells (human Factor 11 mRNA [3]; 180 nM) [%]
"412223 (antisense ACAGTTTCTGGCAGGCCTCG; 5-10-5 MOE gapmer, further chemistry not given here) [compound 412223]",163 mg/mL,8 cP,–,–,–,–,–,–,–,–,–,–,–,–,–
"412224 (antisense GCATTGGTGCACAGTTTCTG; 5-10-5 MOE gapmer, further chemistry not given here) [compound 412224]",186 mg/mL,98 cP,–,–,–,–,–,–,–,–,–,–,–,–,–
"412225 (antisense GCAGCGGACGGCATTGGTGC; 5-10-5 MOE gapmer, further chemistry not given here) [compound 412225]",162 mg/mL,>100 cP,–,–,–,–,–,–,–,–,–,–,–,–,–
"413482 (antisense GGACGGCATTGGTGCACAGT; 5-10-5 MOE gapmer, further chemistry not given here) [compound 413482]",172 mg/mL,16. cP,–,–,–,–,–,–,–,–,–,–,–,–,–
"416826 (antisense ATGCCCTTCATGTCTAGGTC; 5-10-5 gapmer, further chemistry not given here) [compound 416826]",–,–,0.78,0,0,34,61,87,92,13,24,34,67,69,71
"416838 (antisense GCAACCGGGATGATGAGTGC; 5-10-5 gapmer, further chemistry not given here) [compound 416838]",–,–,1.2,12,9,28,40,77,88,0,0,21,34,48,62
"416856 (antisense GGCATTGGTGCACAGTTTCT; 5-10-5 gapmer, further chemistry not given here) [compound 416856]",175 mg/mL,18 cP,–,–,–,–,–,–,–,–,–,–,–,–,–
"416864 (antisense GGCAGCGGACGGCATTGGTG; 5-10-5 gapmer, further chemistry not given here) [compound 416864]",–,–,2.2,4,3,6,35,75,87,0,1,15,23,47,64
"416892 (antisense GCCCTTCATGTCTAGGTCCA; 3-14-3 chimeric gapmer, further chemistry not given here) [compound 416892]",–,–,0.61,9,12,28,65,89,98,20,20,43,62,88,92
"416925 (antisense GGTGCACAGTTTCTGGCAGG; 3-14-3 gapmer chemistry, further chemistry not given here) [compound 416925]",–,–,0.2,27,39,50,73,88,96,0,9,1,48,55,76
"416999 (antisense GCACAGTTTCTGGCAGGCCT; 2-13-5 gapmer chemistry, further chemistry not given here) [compound 416999]",–,–,0.16,31,45,62,78,94,97,3,40,36,62,67,82
"417002 (antisense GGTGCACAGTTTCTGGCAGG; 2-13-5 gapmer chemistry, further chemistry not given here) [compound 417002]",–,–,1.2,19,0,31,47,86,93,32,16,28,38,55,71
"417003 (antisense TGGTGCACAGTTTCTGGCAG; 2-13-5 gapmer chemistry, further chemistry not given here) [compound 417003]",–,–,1.5,31,0,15,43,84,92,12,18,19,39,58,74
445522 (antisense eG*e[5mC]*eA*e[5mC]*eA*dG*dT*dT*dT*d[5mC]*dT*dG*dG*e[5mC]*eA*eG*eG*e[5mC]) [compound 445522],173 mg/mL and 174 mg/mL,63 cP and 58 cP,–,–,–,–,–,–,–,–,–,–,–,–,–
